Test results taken from the supplement of paper PMC10307832.

Assays:
Experiment in all cases: relative viability (nuclei count vs DMSO), 5 days (fraction); higher = more cells survive
[1] = compound: CN(C)CC1=CC(=CC=C1)N=C(C2=CC=CC=C2)C3=C(NC4=C3C=CC(=C4)C(=O)N(C)C)O + Nc1ncn([C@H]2C[C@H](O)[C@@H](CO)O2)c(=O)n1 [Decitabine] (partner 2 µM)
How it was run: (§1)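 Five library-drug doses in √10 steps were combined with a fixed anchor-drug dose, or a single drug was given alone, by pin tool to lung cancer cell lines in 1536-well plates the day after seeding. Nuclei were stained and counted after 5 days. Relative viability is the nuclei count in treated wells over that in vehicle wells, taken as the median of duplicate plates.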

[2] = compound: CN(C)CC1=CC(=CC=C1)N=C(C2=CC=CC=C2)C3=C(NC4=C3C=CC(=C4)C(=O)N(C)C)O + CCNC(=O)c1noc(-c2cc(C(C)C)c(O)cc2O)c1-c1ccc(CN2CCOCC2)cc1 [Luminespib] (partner 0.01 µM)
How it was run: as §1

[3] = compound: CN(C)CC1=CC(=CC=C1)N=C(C2=CC=CC=C2)C3=C(NC4=C3C=CC(=C4)C(=O)N(C)C)O + CS(=O)(=O)CCNCc1ccc(-c2ccc3ncnc(Nc4ccc(OCc5cccc(F)c5)c(Cl)c4)c3c2)o1 [Lapatinib] (partner 2 µM)
How it was run: as §1

[4] = compound: CN(C)CC1=CC(=CC=C1)N=C(C2=CC=CC=C2)C3=C(NC4=C3C=CC(=C4)C(=O)N(C)C)O + O=C(c1cc(Cc2n[nH]c(=O)c3ccccc23)ccc1F)N1CCN(C(=O)C2CC2)CC1 [Olaparib] (partner 8 µM)
How it was run: as §1

Row | Cell Line | relative viability ([1]; first compound 0.08 µM) | relative viability ([1]; first compound 0.253 µM) | relative viability ([1]; first compound 0.8 µM) | relative viability ([1]; first compound 2.53 µM) | relative viability ([1]; first compound 8 µM) | relative viability ([2]; first compound 0.08 µM) | relative viability ([2]; first compound 0.253 µM) | relative viability ([2]; first compound 0.8 µM) | relative viability ([2]; first compound 2.53 µM) | relative viability ([2]; first compound 8 µM) | relative viability ([3]; first compound 0.08 µM) | relative viability ([3]; first compound 0.253 µM) | relative viability ([3]; first compound 0.8 µM) | relative viability ([3]; first compound 2.53 µM) | relative viability ([3]; first compound 8 µM) | relative viability ([4]; first compound 0.08 µM) | relative viability ([4]; first compound 0.253 µM) | relative viability ([4]; first compound 0.8 µM) | relative viability ([4]; first compound 2.53 µM) | relative viability ([4]; first compound 8 µM)
1 | LU99A | 0.925 | 0.79 | 0.885 | 0.927 | 0.673 | 0.238 | 0.246 | 0.285 | 0.258 | 0.234 | 1.06 | 1 | 1.01 | 0.922 | 0.756 | 0.263 | 0.331 | 0.254 | 0.264 | 0.247
2 | HARA | 0.452 | 0.595 | 0.537 | 0.554 | 0.443 | 0.867 | 0.742 | 0.763 | 0.747 | 0.656 | 0.794 | 0.842 | 0.686 | 0.803 | 0.744 | 0.622 | 1.03 | 0.762 | 0.758 | 0.967
3 | NCI-H1355 | 0.376 | 0.359 | 0.331 | 0.342 | 0.365 | 0.687 | 0.713 | 0.735 | 0.764 | 0.66 | 1.08 | 1.02 | 0.955 | 0.948 | 0.885 | 0.771 | 0.707 | 0.772 | 0.752 | 0.732
4 | LCLC-97TM1 | 0.271 | 0.261 | 0.225 | 0.219 | 0.205 | 0.757 | 0.849 | 0.771 | 0.957 | 0.834 | 1.14 | 1.02 | 1.13 | 1.37 | 0.574 | 0.485 | 0.392 | 0.442 | 0.391 | 0.433
5 | SK-MES-1 | 0.392 | 0.351 | 0.4 | 0.374 | 0.39 | 0.544 | 0.749 | 0.678 | 0.834 | 0.521 | 0.53 | 0.531 | 0.49 | 0.426 | 0.443 | 0.634 | 0.698 | 0.588 | 0.629 | 0.522
6 | A-427 | 0.562 | 0.614 | 0.547 | 0.554 | 0.534 | 0.995 | 0.929 | 1 | 0.667 | 0.756 | 1.03 | 1.06 | 1.09 | 1.03 | 1.1 | 0.716 | 0.711 | 0.754 | 0.707 | 0.711
7 | NCI-H460 | 0.449 | 0.491 | 0.503 | 0.456 | 0.471 | 0.0333 | 0.0284 | 0.0254 | 0.0282 | 0.0318 | 1.1 | 0.967 | 1.04 | 0.776 | 0.741 | 0.46 | 0.447 | 0.433 | – | 0.428
8 | HCC-44 | 0.989 | 0.94 | 0.941 | 0.919 | 0.968 | 1.15 | 0.761 | 1.03 | 0.917 | 0.991 | 0.953 | 1.03 | 0.986 | 0.937 | 1.03 | 0.975 | 0.995 | 0.967 | 0.904 | 1.04
